From patent publication US5968910A, “Compositions containing two or three inhibitors of different HIV reverse transcriptases” (priority 1994, dated 1999)
pIC50: −log10 of the molar value. In brackets after ≈: the same amount, converted by molar mass. Read-outs that look alike come from different tables or passages of the source.

What was measured:
HIV-1(IIIB) (WT) = assay: microbe, parasite or virus in culture; type: cell-based; settings: Human immunodeficiency virus 1, IIIB, CCRF-CEM
Summary of the method: (§1)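 Syncytium formation read out after 4 days at 37° C. Cultures: CEM cells, 250,000/ml, infected at 100 50% cell culture infective doses/ml and added to compound dilutions.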

HIV-1/I(0.1) 103-Asn = assay: Sensitivity of mutant HIV-1 strain in CEM cell cultures; type: cell-based; settings: Human immunodeficiency virus 1, CCRF-CEM; Table 5; read-out: EC50
Summary of the method: as §1

HIV-1/II(0.1) 100-Ile = assay: as above; type: cell-based; settings: Human immunodeficiency virus 1, CCRF-CEM; Table 5; read-out: EC50
Summary of the method: as §1

HIV-1/III(0.1) 103-Asn = assay: as above; type: cell-based; settings: Human immunodeficiency virus 1, CCRF-CEM; Table 5; read-out: EC50
Summary of the method: as §1

HIV-1/IV(0.1) 103-Thr = assay: as above; type: cell-based; settings: Human immunodeficiency virus 1, CCRF-CEM; Table 5; read-out: EC50
Summary of the method: as §1

HIV-1/Nev (106-Ala) = assay: as above; type: cell-based; settings: Human immunodeficiency virus 1, CCRF-CEM; CEM cells, Table 1; read-out: 50% Effective Concentration
Summary of the method: as §1

HIV-1/Pyr (181-Cys) = assay: as above; type: cell-based; settings: Human immunodeficiency virus 1, CCRF-CEM; CEM cells, Table 1; read-out: 50% Effective Concentration
Summary of the method: as §1

[1] = system: HIV-1/TIBO R82150 (100-Ile); assay: as above; type: cell-based; settings: Human immunodeficiency virus 1, CCRF-CEM; CEM cells, Table 1; read-out: 50% Effective Concentration
Summary of the method: as §1

[2] = system: HIV-1/TIBO R82913 (103-Asn); assay: as above; type: cell-based; settings: Human immunodeficiency virus 1, CCRF-CEM; CEM cells, Table 1; read-out: 50% Effective Concentration
Summary of the method: as §1

[3] = system: HIV-1/TSAO-m^3 T (138-Lys); assay: as above; type: cell-based; settings: Human immunodeficiency virus 1, CCRF-CEM; CEM cells, Table 1; read-out: 50% Effective Concentration
Summary of the method: as §1

[4] = system: HIV-1/V(0.1) 101-Ile + 141-Glu; assay: as above; type: cell-based; settings: Human immunodeficiency virus 1, CCRF-CEM; Table 5; read-out: EC50
Summary of the method: as §1

HIV-1/V(0.5) 103-Asn = assay: as above; type: cell-based; settings: Human immunodeficiency virus 1, CCRF-CEM; Table 5; read-out: EC50
Summary of the method: as §1

HIV-1 RT (WT) = HIV-1 RT (WT) (Human immunodeficiency virus type 1 group M subtype B, UniProt P03366); assay: biochemical
Summary of the method: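 Recombinant HIV-1 RT incubated 30 min at 37° C with poly(C).oligo(dG) (0.1 mM) and [³H]dGTP (2.95 μM) in Tris pH 7.8 with 5 mM MgCl2, 150 mM KCl, DTT, glutathione, Triton X-100; 5-fold compound dilutions. Acid-insoluble radioactivity counted after TCA/pyrophosphate precipitation.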

HIV-1(IIIB) = assay: Knock-out concentrations: breakthrough of HIV-1(IIIB)-induced cytopathicity in CEM cell cultures; type: cell-based; settings: for activity at 0.1 µg/mL / activity at 0.5 µg/mL / activity at 2.5 µg/mL: Human immunodeficiency virus 1, IIIB, CCRF-CEM, read-out: HIV-1-induced cytopathicity in cell culture; for activity at 0.1 µg/mL: 0.1 μg/ml; for activity at 0.5 µg/mL: 0.5 μg/ml; for activity at 2.5 µg/mL: 2.5 μg/ml
Summary of the method: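 CEM cells in RPMI 1640 with 10% FBS infected with HIV-1(IIIB) at ~1000× CCID50, subcultured every 3–4 days into fresh uninfected cells with drug held constant for 10 subcultivations (35 days), then ≥5 drug-free passages. Breakthrough scored by syncytium formation. Combinations used the two lowest single-drug starting concentrations.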

[5] = 936 h, day 39 post infection, compound absent from day 35
[6] = 1008 h, day 42 post infection, compound absent from day 35
[7] = 1104 h, day 46 post infection, compound absent from day 35
[8] = 1176 h, day 49 post infection, compound absent from day 35
[9] = 1272 h, day 53 post infection, compound absent from day 35

With Cc1occc1C(=S)Nc1ccc(Cl)c(C(=O)OC2CCCCC2)c1 [Compound III] the EC50 (HIV-1(IIIB) (WT); CEM cells, Table 1, read-out: 50% Effective Concentration) was 0.004 mg/L (≈ 0.0106 µM), the EC50 (HIV-1(IIIB) (WT); HIV-1 (III8), Table 5, read-out: EC50) was 0.004 mg/L (≈ 0.0106 µM) and the IC50 (HIV-1(IIIB) (WT); range stated for Compounds I-V together, read-out: 50% inhibitory concentration, HIV-1(IIIB) replication in CEM cells) was 0.004 to 0.05 mg/L (≈ 0.0106 to 0.132 µM). It also gave an EC50 (HIV-1/I(0.1) 103-Asn) of 0.3 mg/L (≈ 0.794 µM), an EC50 (HIV-1/II(0.1) 100-Ile) of 0.87 mg/L (≈ 2.3 µM) and an EC50 (HIV-1/III(0.1) 103-Asn) of 0.16 mg/L (≈ 0.423 µM). For the same compound, the EC50 (HIV-1/IV(0.1) 103-Thr) was 1.1 mg/L (≈ 2.91 µM), the EC50 (HIV-1/Nev (106-Ala)) was 0.057 mg/L (≈ 0.151 µM) and the EC50 (HIV-1/Pyr (181-Cys)) was 0.07 mg/L (≈ 0.185 µM). For the same compound, the EC50 [1] was 0.17 mg/L (≈ 0.45 µM), the EC50 [2] was 0.7 mg/L (≈ 1.85 µM) and the EC50 [3] was 0.035 mg/L (≈ 0.0926 µM). For the same compound, the EC50 [4] was 0.05 mg/L (≈ 0.132 µM), the EC50 (HIV-1/V(0.5) 103-Asn) was 0.85 mg/L (≈ 2.25 µM) and the pIC50 (HIV-1 RT (WT); range stated for the compounds together, poly(C).oligo(dG), 2.95 μM [2,8-3H]dGTP, read-out: IC50 on recombinant HIV-1 RT) was 6.69 to 7.32. For the same compound, the IC50 (HIV-1 RT (WT); substrate [2,8-3H]dGTP 2.95 μM, template poly(rC)oligo(dG), read-out: IC50, anti-HIV-1 RT (WT) activity (converted)) was 0.146 µM, the “prevention of virus breakthrough, fold more efficient than BHAP” value (HIV-1(IIIB)) was “at least 5 fold” and the “prevention of virus breakthrough, fold more efficient than nevirapine” value (HIV-1(IIIB)) was ≥ 25 fold. It also gave an activity at 0.1 µg/mL (HIV-1(IIIB); 96 h, day 4 post infection) of 0%, an activity at 0.5 µg/mL (HIV-1(IIIB); 96 h, day 4 post infection) of 0% and an activity at 2.5 µg/mL (HIV-1(IIIB); 96 h, day 4 post infection) of 0%. It also gave an activity at 0.1 µg/mL (HIV-1(IIIB); 192 h, day 8 post infection) of 0%, an activity at 0.5 µg/mL (HIV-1(IIIB); 192 h, day 8 post infection) of 0% and an activity at 2.5 µg/mL (HIV-1(IIIB); 192 h, day 8 post infection) of 0%. For the same compound, the activity at 0.1 µg/mL (HIV-1(IIIB); 264 h, day 11 post infection) was 0%, the activity at 0.5 µg/mL (HIV-1(IIIB); 264 h, day 11 post infection) was 0% and the activity at 2.5 µg/mL (HIV-1(IIIB); 264 h, day 11 post infection) was 0%. For the same compound, the activity at 0.1 µg/mL (HIV-1(IIIB); 336 h, day 14 post infection) was 6.2%, the activity at 0.5 µg/mL (HIV-1(IIIB); 336 h, day 14 post infection) was 0% and the activity at 2.5 µg/mL (HIV-1(IIIB); 336 h, day 14 post infection) was 0%. It also gave an activity at 0.1 µg/mL (HIV-1(IIIB); 408 h, day 17 post infection) of 50%, an activity at 0.5 µg/mL (HIV-1(IIIB); 408 h, day 17 post infection) of 0% and an activity at 2.5 µg/mL (HIV-1(IIIB); 408 h, day 17 post infection) of 0%. For the same compound, the activity at 0.1 µg/mL (HIV-1(IIIB); 504 h, day 21 post infection) was 100%, the activity at 0.5 µg/mL (HIV-1(IIIB); 504 h, day 21 post infection) was 0% and the activity at 2.5 µg/mL (HIV-1(IIIB); 504 h, day 21 post infection) was 0%. The activity at 0.1 µg/mL (HIV-1(IIIB); 600 h, day 25 post infection) was 100%, the activity at 0.5 µg/mL (HIV-1(IIIB); 600 h, day 25 post infection) was 0% and the activity at 2.5 µg/mL (HIV-1(IIIB); 600 h, day 25 post infection) was 0%. It also gave an activity at 0.1 µg/mL (HIV-1(IIIB); 672 h, day 28 post infection) of 100%, an activity at 0.5 µg/mL (HIV-1(IIIB); 672 h, day 28 post infection) of 0% and an activity at 2.5 µg/mL (HIV-1(IIIB); 672 h, day 28 post infection) of 0%. For the same compound, the activity at 0.1 µg/mL (HIV-1(IIIB); 768 h, day 32 post infection) was 100%, the activity at 0.5 µg/mL (HIV-1(IIIB); 768 h, day 32 post infection) was 0% and the activity at 2.5 µg/mL (HIV-1(IIIB); 768 h, day 32 post infection) was 0%. It also gave an activity at 0.1 µg/mL (HIV-1(IIIB); 840 h, day 35 post infection) of 100%, an activity at 0.5 µg/mL (HIV-1(IIIB); 840 h, day 35 post infection) of 0% and an activity at 2.5 µg/mL (HIV-1(IIIB); 840 h, day 35 post infection) of 0%. It also gave an activity at 0.1 µg/mL (HIV-1(IIIB); [5]) of 100%, an activity at 0.5 µg/mL (HIV-1(IIIB); [5]) of 0% and an activity at 2.5 µg/mL (HIV-1(IIIB); [5]) of 0%. It also gave an activity at 0.1 µg/mL (HIV-1(IIIB); [6]) of 100%, an activity at 0.5 µg/mL (HIV-1(IIIB); [6]) of 0% and an activity at 2.5 µg/mL (HIV-1(IIIB); [6]) of 0%. It also gave an activity at 0.1 µg/mL (HIV-1(IIIB); [7]) of 100%, an activity at 0.5 µg/mL (HIV-1(IIIB); [7]) of 0% and an activity at 2.5 µg/mL (HIV-1(IIIB); [7]) of 0%. It also gave an activity at 0.1 µg/mL (HIV-1(IIIB); [8]) of 100%, an activity at 0.5 µg/mL (HIV-1(IIIB); [8]) of 0% and an activity at 2.5 µg/mL (HIV-1(IIIB); [8]) of 0%. For the same compound, the activity at 0.1 µg/mL (HIV-1(IIIB); [9]) was 100%, the activity at 0.5 µg/mL (HIV-1(IIIB); [9]) was 0% and the activity at 2.5 µg/mL (HIV-1(IIIB); [9]) was 0%. The “concentration at which virus emerged (virus breakthrough)” value (HIV-1(IIIB); tested at 0.1, 0.5 and 2.5 μg/ml, 35 days) was 0.1 µg/mL.
